Assay results taken from patent EP0620225B1, “Cephalosporin derivatives” (Basilea Pharmaceutica AG, priority 1993, dated 1994).
Values after ≈ are worked out from the molar mass of the structure shown.

Tests used:
S.aureus 6538 = test: Antibacterial spectrum (MIC), agar dilution; type: cell-based; conditions: Staphylococcus aureus, read-out: MIC
Experimental: (§1) In vitro activity was determined by minimum inhibitory concentration in a microorganism spectum by the agar dilution method in Mueller Hinton agar.

E.cloacae 908SSi = test: Antibacterial spectrum (MIC), agar dilution; type: cell-based; conditions: Enterobacter cloacae, read-out: MIC
Experimental: as §1

C.freundii 43 = test: Antibacterial spectrum (MIC), agar dilution; type: cell-based; conditions: Citrobacter freundii, read-out: MIC
Experimental: as §1

S.marcescens 69438 = test: Antibacterial spectrum (MIC), agar dilution; type: cell-based; conditions: Serratia marcescens, read-out: MIC
Experimental: as §1

X.maltophilia 1AC739 = test: Antibacterial spectrum (MIC), agar dilution; type: cell-based; conditions: Stenotrophomonas maltophilia, read-out: MIC
Experimental: as §1

M.catarrhalis RA21 = test: Antibacterial spectrum (MIC), agar dilution; type: cell-based; conditions: Moraxella catarrhalis, read-out: MIC
Experimental: as §1

E.faecalis 6 = test: Antibacterial spectrum (MIC), agar dilution; type: cell-based; conditions: Enterococcus faecalis, read-out: MIC
Experimental: as §1

N.meningitidis 69480 = test: Antibacterial spectrum (MIC), agar dilution; type: cell-based; conditions: Neisseria meningitidis, read-out: MIC
Experimental: as §1

E.coli 25922 = test: Antibacterial spectrum (MIC), agar dilution; type: cell-based; conditions: Escherichia coli, read-out: MIC
Experimental: as §1

L.monocytogenes BK23 = test: Antibacterial spectrum (MIC), agar dilution; type: cell-based; conditions: Listeria monocytogenes, read-out: MIC
Experimental: as §1

P.aeruginosa 27853 = test: Antibacterial spectrum (MIC), agar dilution; type: cell-based; conditions: Pseudomonas aeruginosa, read-out: MIC
Experimental: as §1

S.pneumoniae Q19 = test: Antibacterial spectrum (MIC), agar dilution; type: cell-based; conditions: Streptococcus pneumoniae, read-out: MIC
Experimental: as §1

B.fragilis ATCC25285 = test: Antibacterial spectrum (MIC), agar dilution; type: cell-based; conditions: Bacteroides fragilis, read-out: MIC
Experimental: as §1

P.mirabilis 2117 = test: Antibacterial spectrum (MIC), agar dilution; type: cell-based; conditions: Proteus mirabilis, read-out: MIC
Experimental: as §1

C.difficile ZH1 = test: Antibacterial spectrum (MIC), agar dilution; type: cell-based; conditions: Clostridioides difficile, read-out: MIC
Experimental: as §1

S.agalactiae QK44 = test: Antibacterial spectrum (MIC), agar dilution; type: cell-based; conditions: Streptococcus agalactiae, read-out: MIC
Experimental: as §1

H.influenzae 1 = test: Antibacterial spectrum (MIC), agar dilution; type: cell-based; conditions: Haemophilus influenzae, read-out: MIC
Experimental: as §1

S.aureus 734 MRSA = test: Antibacterial spectrum (MIC), agar dilution; type: cell-based; conditions: Staphylococcus aureus, read-out: MIC
Experimental: as §1

S.pyogenes B15 = test: Antibacterial spectrum (MIC), agar dilution; type: cell-based; conditions: Streptococcus pyogenes, read-out: MIC
Experimental: as §1

M.morganii 6H-137 = test: Antibacterial spectrum (MIC), agar dilution; type: cell-based; conditions: Morganella morganii, 6H137, read-out: MIC
Experimental: as §1

P.asaccharolyticus 29743 = test: Antibacterial spectrum (MIC), agar dilution; type: cell-based; conditions: Peptoniphilus asaccharolyticus, read-out: MIC
Experimental: as §1

K.pneumoniae 418 = test: Antibacterial spectrum (MIC), agar dilution; type: cell-based; conditions: Klebsiella pneumoniae, read-out: MIC
Experimental: as §1

E.cloacae 908R = test: Antibacterial spectrum (MIC), agar dilution; type: cell-based; conditions: Enterobacter cloacae, read-out: MIC
Experimental: as §1

C.freundii 902 = test: Antibacterial spectrum (MIC), agar dilution; type: cell-based; conditions: Citrobacter freundii, read-out: MIC
Experimental: as §1

Acinetobacter sp.51-156 = test: Antibacterial spectrum (MIC), agar dilution; type: cell-based; conditions: SP.51156, read-out: MIC
Experimental: as §1

S.viridans group 016 = test: Antibacterial spectrum (MIC), agar dilution; type: cell-based; conditions: Streptococcus viridans, read-out: MIC
Experimental: as §1

P.vulgaris 1028 = test: Antibacterial spectrum (MIC), agar dilution; type: cell-based; conditions: Proteus vulgaris, read-out: MIC
Experimental: as §1

E.faecalis [1] = test: In vitro activity against selected species (MIC50, MIC90, range); type: cell-based; conditions: Enterococcus faecalis, medium MHA
Experimental: as §1

S.aureus MRSA = test: as above; type: cell-based; conditions: Staphylococcus aureus, medium MHA (Mueller Hinton Agar) +NaCl
Experimental: as §1

S.aureus MSSA = test: as above; type: cell-based; conditions: Staphylococcus aureus, medium MHB (Mueller Hinton Broth)
S.aureus Smith = test: Efficacy against systemic infections (septicemia) in mice; type: in vivo; conditions: Staphylococcus aureus, 96 h, sc 1 and 3 h after challenge, survival day 4
Experimental: (§2) Septicemia was induced in outbred Swiss albino mice (Jbm MoRo [specific pathogen free]; weight 16 to 20 g, Biomedical Research Laboratories, Füllinsdorf, Switzerland). Mice were infected by intraperitoneal injection of diluted overnight cultures of the test organisms. Bacterial challenge doses were 4-10 times the number of organisms required to kill 50% of untreated animals within 48 h. The test compounds were administered p.o. or s.c. 1 and 3 h after the bacterial challenge. To treat the infection with Pseudomonas aeruginosa BA an additional dose was given 5 h after challenge. Control and treatment groups at each dose were composed of five mice each. The 50% effective dose (ED50, in milligrams per kilogram) was calculated by probit analysis as described by Finney (Finney, D.J. 1978, Statistical method in biological assay, 3rd ed. Charles Griffin & Co., Ltd., London), from the survival rates on day 4 after infection.

Escherichia coli 25922 = test: as above; type: in vivo; conditions: 96 h, survival day 4
Experimental: as §2

M.catarrhalis = test: In vitro activity against selected species (MIC50, MIC90, range); type: cell-based; conditions: Moraxella catarrhalis, medium IsoB
S.viridans group = test: as above; type: cell-based
E.faecium = test: In vitro activity against selected species (MIC50, range); type: cell-based; conditions: Enterococcus faecium, medium MHA
Experimental: as §1

E.faecalis [2] = test: In vitro activity against selected species (MIC50, MIC90, range); type: cell-based; conditions: Enterococcus faecalis, medium IsoB
S.pneumoniae PEN-R = test: as above; type: cell-based; conditions: Streptococcus pneumoniae; for MIC: MIC range
[3] = medium IsoB (Isosensitest Broth)

MIC (S.aureus 6538): 0.5 mg/L (≈ 1.26 µM)
MIC (E.cloacae 908SSi): 32 mg/L (≈ 80.9 µM)
MIC (C.freundii 43): > 32 mg/L
MIC (S.marcescens 69438): 16 mg/L (≈ 40.5 µM)
MIC (X.maltophilia 1AC739): > 32 mg/L
MIC (M.catarrhalis RA21): 1 mg/L (≈ 2.53 µM)
MIC (E.faecalis 6): 8 mg/L (≈ 20.2 µM)
MIC (N.meningitidis 69480): ≤ 0.06 mg/L
MIC (E.coli 25922): 0.25 mg/L (≈ 0.632 µM)
MIC (L.monocytogenes BK23): 16 mg/L (≈ 40.5 µM)
MIC (P.aeruginosa 27853): > 32 mg/L
MIC (S.pneumoniae Q19): 0.25 mg/L (≈ 0.632 µM)
MIC (B.fragilis ATCC25285): 32 mg/L (≈ 80.9 µM)
MIC (P.mirabilis 2117): 0.12 mg/L (≈ 0.303 µM)
MIC (C.difficile ZH1): 32 mg/L (≈ 80.9 µM)
MIC (S.agalactiae QK44): 0.25 mg/L (≈ 0.632 µM)
MIC (H.influenzae 1): 0.5 mg/L (≈ 1.26 µM)
MIC (S.aureus 734 MRSA): > 32 mg/L
MIC (S.pyogenes B15): ≤ 0.06 mg/L
MIC (M.morganii 6H-137): 8 mg/L (≈ 20.2 µM)
MIC (P.asaccharolyticus 29743): ≤ 0.12 mg/L
MIC (K.pneumoniae 418): 0.12 mg/L (≈ 0.303 µM)
MIC (E.cloacae 908R): > 32 mg/L
MIC (C.freundii 902): 16 mg/L (≈ 40.5 µM)
MIC (Acinetobacter sp.51-156): > 32 mg/L
MIC (S.viridans group 016): 2 mg/L (≈ 5.06 µM)
MIC (P.vulgaris 1028): 1 mg/L (≈ 2.53 µM)
MIC (E.faecalis [1]; MIC range): 4 to 32 mg/L (≈ 10.1 to 80.9 µM)
MIC50 (E.faecalis [1]): 8 mg/L (≈ 20.2 µM)
MIC90 (E.faecalis [1]): 16 mg/L (≈ 40.5 µM)
MIC50 (S.aureus MRSA): > 32 mg/L
MIC90 (S.aureus MRSA): > 32 mg/L
MIC (S.aureus MSSA; MIC range): 0.5 to 4 mg/L (≈ 1.26 to 10.1 µM)
MIC50 (S.aureus MSSA): 1 mg/L (≈ 2.53 µM)
MIC90 (S.aureus MSSA): 2 mg/L (≈ 5.06 µM)
MIC (M.catarrhalis; MIC range): 0.25 to 0.5 mg/L (≈ 0.632 to 1.26 µM)
MIC50 (M.catarrhalis): 0.25 mg/L (≈ 0.632 µM)
MIC90 (M.catarrhalis): 0.5 mg/L (≈ 1.26 µM)
MIC50 (S.viridans group; Streptococcus viridans): 8 mg/L (≈ 20.2 µM)
MIC90 (S.viridans group; Streptococcus viridans): 16 mg/L (≈ 40.5 µM)
MIC50 (E.faecium): 16 mg/L (≈ 40.5 µM)
MIC (E.faecalis [2]; MIC range): 1 to 64 mg/L (≈ 2.53 to 162 µM)
MIC50 (E.faecalis [2]): 8 mg/L (≈ 20.2 µM)
MIC90 (E.faecalis [2]): 32 mg/L (≈ 80.9 µM)
MIC (S.pneumoniae PEN-R; [3]): 0.1 to 8 mg/L (≈ 0.253 to 20.2 µM)
MIC (S.pneumoniae PEN-R; medium IsoB + 20% serum): 0.1 to 8 mg/L
MIC50 (S.pneumoniae PEN-R; [3]): 2 mg/L (≈ 5.06 µM)
MIC90 (S.pneumoniae PEN-R; [3]): 4 mg/L (≈ 10.1 µM)
MIC50 (S.pneumoniae PEN-R; medium IsoB + 20% serum): 4 mg/L
SMILES: C=CC1=C(C(=O)O)N2C(=O)[C@@H](NC(=O)/C(=N\O)c3csc(N)n3)[C@H]2SC1 [Cefdinir, reference compound]
ED50 (S.aureus Smith): < 1 mg/kg
ED50 (Escherichia coli 25922; Escherichia coli 25922, po (orally) 1 and 3 h after challenge): 1.8 mg/kg
ED50 (Escherichia coli 25922; Escherichia coli, E.coli 25922, sc 1 and 3 h after challenge): < 1 mg/kg
Range (S.viridans group; MIC range, medium IsoB): <0.12 to 128 µg/mL
